According to patent US5399691A, “Substituted benzoylurea derivatives or their salts” (Ishihara Sangyo Kaisha Ltd., priority 1991, dated 1995):
Values after ≈ are worked out from the molar mass of the structure shown. Counter-ions that a name gives are not always drawn. Like-named read-outs stand apart in the source and are kept apart here.

What was measured:
[1] = Solubility in water-soluble solvent by HPLC (Test Example 2); assay type: physicochemical
Procedure: About 2 mg of each of the compounds of the present invention shown in the following Table 7 was accurately weighed, and was completely dissolved in 2 ml of N,N-dimethylacetamide. The content was then transferred into a 10 ml-measuring flask, and its volume was made constant with acetonitrile. 3 ml of the resultant solution was placed in a 50 ml-measuring flask, and its volume was adjusted constant with acetonitrile to prepare a standard solution. Next, about 2 mg of each of the compounds of the present invention was weighed, and was placed in an agate mortar. Thereafter, 1.5 ml of a test liquid (water-soluble solvent) was added thereto, and the content was mixed for 5 minutes. A suspension thus obtained, was transferred into a 1.5 ml-microtube, and was centrifuged at 15,000 r.p.m. for 10 minutes. The supernatant fluid was placed in a 1 ml-microtube, and was centrifuged again under the same conditions. 0.1 ml of the supernatant fluid thus obtained was diluted with 0.9 ml of acetonitrile to prepare a measuring liquid. The above standard solution and the measuring liquid were analyzed by high pressure liquid chromatography (HPLC), and their solubilities were measured by absolute calibration curve method.
Column: Nucleosil 5 C18, diameter=4.6 mm, length=250 mm
Mobile phase: acetonitrile/water/acetic acid=60/40/0.1
Detection: UV 265 nm, Column temperature: 40° C.,
Sensitivity: 0.005 AUFS or 0.16 AUFS,

P-388 leukemia = assay: Antitumor activity against P-388 leukemia, increase life span (Test Example 1); assay type: in vivo, BDF1 mouse (murine); conditions: days 1, 5 and 9
Excerpt: The compounds of the present invention are effective against experimental murine tumors such as P-388 leukemia, L-1210 leukemia, B-16 melanoma, M-5076 sarcoma, Colon 38, Colon 26 and Lewis lung carcinoma. On the other hand, certain in vivo test systems and protocols have been developed by National Cancer Institute for testing compounds to determine the effectiveness of test compounds as antineoplastic agents. These have been reported in "Cancer Chemotherapy Reports", Part III, Vol. 3, No. 2 (1972) written by Deran, Greenberg, MacDonald, Schumacher and Abott. P-388 leukemia is the most standard experimental murine tumor, and it is known that many of drugs effective against human tumor are also effective against this leukemia. Generally, the effectiveness of a drug for these experimental murine tumors is evaluated by the extended median survival time of a test mouse group to which a test drug is administered on the basis of the median survival time of a control mouse group to which no drug is administered. If the extended median survival time is at least 25-30% longer, the administered drug is determined to be effective.
1×10^6 of P-388 leukemia cells per mouse were intraperitoneally transplanted into BDF1 mouse. Each formulation was intraperitoneally or intravenously administered on the 1st, 5th and 9th days after the transplantation.
The increase life span of each group was determined by comparing the median survival time (days) of a test group to which a test drug is administered and the median survival time (days) of a control group to which physiological saline was administered at the same part as in the case of the test group. Among the tested drug formulations, the compounds of the present invention were formulated in accordance with the below-mentioned Formulation Example 1, and the comparative compounds as shown in Table 8 were formulated in accordance with the below-mentioned Formulation Example 2.
(Note) * Increase life span is calculated by the following equation:
Increase life span % (ILS)=(a/b×100)-100 a: Median survival days of test group of drug administration b: Median survival days of control group of physiological saline administration 0.125 part by weight of the above mentioned Compound No. 1 was dissolved in 5 parts by weight of N,N-dimethylacetamide and 5 parts by weight of polyoxyethylene sorbitan monooleate, and 90 parts by weight of physiological saline was added thereto to form a solution formulation in an agate mortar.
0.125 part by weight of Comparative Compound No. 1 was dissolved in 5 parts by weight of N,N-dimethylacetamide and 5 parts by weight of polyoxyethylene sorbitan monooleate, and 90 parts by weight of physiological saline was added thereto to form a suspension formulation in an agate mortar.

Acute toxicity = assay type: in vivo; conditions: mouse, in vivo; BDF1 mice, intravenous, Formulation Example 1; read-out: acute toxicity value (LD 50)
Procedure: (§1) None of BDF1 mice were dead by intravenously administering each formulation of Compound Nos. 1 to 9, 20, 49 and 53 of the present invention prepared in accordance with Formulation Example 1 in an amount of 25 mg/kg mouse (on the basis of compound).
(§2) 0.125 part by weight of the above mentioned Compound No. 1 was dissolved in 5 parts by weight of N,N-dimethylacetamide and 5 parts by weight of polyoxyethylene sorbitan monooleate, and 90 parts by weight of physiological saline was added thereto to form a solution formulation in an agate mortar.

BDF1 mice = assay: Acute toxicity; assay type: in vivo; conditions: intravenous, 25 mg/kg mouse, Formulation Example 1
Procedure: as §1, §2

[2] = 10% peg 400 aqueous, organic solvent or mixture, 10% polyethylene glycol #400 aqueous solution, read-out: Solubility, test solution C
[3] = distilled water, water, read-out: Solubility, test solution A
[4] = physiological saline, read-out: Solubility, test solution B
[5] = Mus musculus, P388, intravenous
[6] = Mus musculus, P388, intravenous, 12.5 mg/kg
[7] = Mus musculus, P388, intravenous, 25 mg/kg
[8] = Mus musculus, P388, ip, intraperitoneal
[9] = Mus musculus, P388, ip, intraperitoneal, 12.5 mg/kg
[10] = Mus musculus, P388, ip, intraperitoneal, 25 mg/kg

| SMILES | solubility [1, 2] | solubility [1, 3] | solubility [1, 4] | ILS at 6.25 mg/kg (P-388 leukemia; [5]) | ILS at 12.5 mg/kg (P-388 leukemia; [6]) | ILS at 25 mg/kg (P-388 leukemia; [7]) | LD50 (Acute toxicity) | ILS at 6.25 mg/kg (P-388 leukemia; [8]) | ILS at 12.5 mg/kg (P-388 leukemia; [9]) | Increase life span (ILS %) (P-388 leukemia; intraperitoneal, 25 mg/kg) | ILS at 25 mg/kg (P-388 leukemia; [10]) | Increase life span (ILS %) (P-388 leukemia; intraperitoneal, 12.5 mg/kg) | BDF1 mice dead (BDF1 mice) | ILS at 10 mg/kg (P-388 leukemia; Mus musculus, P388, intravenous, 10 mg/kg (footnote d)) | ILS at 20 mg/kg (P-388 leukemia; Mus musculus, P388, intravenous, 20 mg/kg (footnote c)) |
| --- | --- | --- | --- | --- | --- | --- | --- | --- | --- | --- | --- | --- | --- | --- | --- |
| NCC(=O)Nc1ccccc1C(=O)NC(=O)Nc1ccc(Oc2ncc(Br)cn2)c(Cl)c1 [Compound No. 1, N-[4-(5-bromo-2-pyrimidinyloxy)-3-chlorophenyl]-N'-(2-glycylamino)benzoylurea hydrochloride] | 2100 µg/mL | 1200 µg/mL | 50 µg/mL | 12% | 79% | 219% | ≥ 25 mg/kg | – | – | – | – | – | – | – | – |
| CN(C)CC(=O)Nc1ccccc1C(=O)NC(=O)Nc1ccc(Oc2ncc(Br)cn2)c(Cl)c1 [Compound No. 2, N-[4-(5-bromo-2-pyrimidinyloxy)-3-chlorophenyl]-N'-[2-(N,N-dimethylglycyl)amino]benzoylurea hydrochloride] | > 4000 µg/mL | 2500 µg/mL | 550 µg/mL | 24% | 51% | 143% | ≥ 25 mg/kg | – | – | – | – | – | – | – | – |
| C[C@H](N)C(=O)Nc1ccccc1C(=O)NC(=O)Nc1ccc(Oc2ncc(Br)cn2)c(Cl)c1 [Compound No. 3] | 3700 µg/mL (≈ 6.93 mM) | 2800 µg/mL (≈ 5.25 mM) | 320 µg/mL (≈ 0.6 mM) | 10% | 70% | 134% | ≥ 25 mg/kg | – | – | – | – | – | – | – | – |
| C[C@@H](N)C(=O)Nc1ccccc1C(=O)NC(=O)Nc1ccc(Oc2ncc(Br)cn2)c(Cl)c1 [Compound No. 4] | 2700 µg/mL (≈ 5.06 mM) | 2000 µg/mL (≈ 3.75 mM) | 140 µg/mL (≈ 0.262 mM) | – | 19% | 95% | ≥ 25 mg/kg | – | – | – | – | – | – | – | – |
| CSCC[C@H](N)C(=O)Nc1ccccc1C(=O)NC(=O)Nc1ccc(Oc2ncc(Br)cn2)c(Cl)c1 [Compound No. 5] | 2000 µg/mL (≈ 3.37 mM) | 1200 µg/mL (≈ 2.02 mM) | 30 µg/mL (≈ 0.0505 mM) | – | 3% | 152% | ≥ 25 mg/kg | – | – | – | – | – | – | – | – |
| Cc1cc(NC(=O)NC(=O)c2ccccc2NC(=O)CN)ccc1Oc1ncc(Br)cn1 [Compound No. 7, N-[4-(5-bromo-2-pyrimidinyloxy)-3-methylphenyl]-N'-(2-glycylamino)benzoylurea] | 3900 µg/mL (≈ 7.81 mM) | > 2300 µg/mL | 380 µg/mL (≈ 0.761 mM) | 50% | 105% | 143% | ≥ 25 mg/kg | – | – | – | – | – | – | – | – |
| Nc1ccccc1C(=O)NC(=O)Nc1ccc(Oc2ncc(Br)cn2)c(Cl)c1 [compound 1, reference compound] | < 0.05 µg/mL | < 0.05 µg/mL | 0.06 µg/mL (≈ 0.00013 mM) | – | – | – | – | 50% | 107% | Tox | – | – | – | – | – |
| Cc1cc(NC(=O)NC(=O)c2ccccc2N)ccc1Oc1ncc(Cl)cn1 [compound 2, reference compound] | – | 0.8 µg/mL (≈ 0.00201 mM) | – | – | – | – | – | 34% | 83% | – | 148% | – | – | – | – |
| CCc1cc(NC(=O)NC(=O)c2ccccc2N)ccc1Oc1ncc(Br)cn1 [compound 3, reference compound] | – | < 0.1 µg/mL | – | – | – | – | – | 26% | 26% | – | 99% | – | – | – | – |
| Nc1ccccc1C(=O)NC(=O)Nc1ccc(Oc2ncc(Cl)cn2)c(C(F)(F)F)c1 [compound 4, reference compound] | – | 0.4 µg/mL (≈ 0.000885 mM) | – | – | – | – | – | 71% | – | Tox | – | Tox | – | – | – |
| NCC(=O)Nc1ccccc1C(=O)NC(=O)Nc1ccc(Oc2ncc(Cl)cn2)c(C(F)(F)F)c1 [compound 6] | 1900 µg/mL (≈ 3.73 mM) | 1400 µg/mL (≈ 2.75 mM) | 70 µg/mL (≈ 0.138 mM) | 60% | 138% | – | ≥ 25 mg/kg | – | – | – | – | – | – | – | – |
| NCC(=O)NCC(=O)Nc1ccccc1C(=O)NC(=O)Nc1ccc(Oc2ncc(Br)cn2)c(Cl)c1 [compound 8] | 2100 µg/mL (≈ 3.64 mM) | 1800 µg/mL (≈ 3.12 mM) | 70 µg/mL (≈ 0.121 mM) | – | 90% | 243% | ≥ 25 mg/kg | – | – | – | – | – | – | – | – |
| NCC(=O)Nc1ccccc1C(=O)NC(=O)Nc1ccc(Oc2ncc(Cl)cn2)c(Cl)c1 [compound 9] | 1500 µg/mL (≈ 3.16 mM) | 1600 µg/mL (≈ 3.37 mM) | 160 µg/mL (≈ 0.337 mM) | 19% | 86% | 152% | ≥ 25 mg/kg | – | – | – | – | – | – | – | – |
| Cc1cc(NC(=O)NC(=O)c2ccccc2NC(=O)CN(C)C)ccc1Oc1ncc(Br)cn1 [compound 20, N-[4-(5-bromo-2-pyrimidinyloxy)-3-methylphenyl]-N'-[2-(N,N-dimethylglycyl)amino]benzoylurea] | 20000 µg/mL (≈ 37.9 mM) | 19000 µg/mL (≈ 36 mM) | 3000 µg/mL (≈ 5.69 mM) | – | 36% | 155% | ≥ 25 mg/kg | – | – | – | – | – | None | – | – |
| Cc1cc(NC(=O)NC(=O)c2ccccc2NC(=O)[C@H](C)N)ccc1Oc1ncc(Br)cn1 [compound 49] | 9800 µg/mL (≈ 19.1 mM) | 7600 µg/mL (≈ 14.8 mM) | 1800 µg/mL (≈ 3.51 mM) | 14% | 76% | 190% | ≥ 25 mg/kg | – | – | – | – | – | None | – | – |
| CNCC(=O)Nc1ccccc1C(=O)NC(=O)Nc1ccc(Oc2ncc(Br)cn2)c(C)c1 [compound 53, N-[4-(5-bromo-2-pyrimidinyloxy)-3-methylphenyl]-N'-(2-sarcosylamino)benzoylurea] | – | 5000 µg/mL (≈ 9.74 mM) | 120 µg/mL (≈ 0.234 mM) | – | – | – | ≥ 25 mg/kg | – | – | – | – | – | None | > 30% | > 50% |
